Data published in patent publication US20240123080A1, “CYTOTOXIC COMPOUNDS AND CONJUGATES THEREOF” (Seagen Inc., priority 2022, published 2024).
pIC50: −log10 of the molar value. *1 amine or outer side, *2 acyl side, *3 side chain or, on linkers, in order; H or OH if unused. Where a SMILES comes first, the peptide text is derived from it. [ ]: non-standard residue; d: D form. The star is where a group is joined. ξ: configuration not given here. Dolaproine = CO[C@@H]([C@@H]1CCCN1)[C@@H](C)C(=O)O; Hexanoyl(6-maleimido) = O=C1C=CC(=O)N1CCCCCC(=O)*; Dil = CC[C@H](C)[C@H](NC)[C@@H](CC(=O)O)OC; X11 = C[S+]([O-])NC[C@H](N[*:1])C(=O)[*:2]; PABC = O=C(OCc1ccc(N[*:1])cc1)[*:2]; Tyrosinol = OC[C@H](Cc1ccc(O)cc1)N*; Val(3-OH) = CC(C)(O)[C@H](N)C(=O)O; Doe = c1ccc(C[C@H](N*)c2nccs2)cc1; X1 = C[C@@H](N*)[C@@H](O)c1ccccc1; Hyp = O=C(O)[C@@H]1C[C@@H](O)CN1; NMeT = CN[C@H](C(=O)O)[C@@H](C)O; Cit = NC(=O)NCCC[C@H](N)C(=O)O; Phe(ol) = N[C@H](CO)Cc1ccccc1; NHPhenethyl = c1ccc(CCN*)cc1; X3 = CN1C(=O)OC[C@@H]1C(=O)*; NMeS = CN[C@@H](CO)C(=O)O; dNMeS = CN[C@H](CO)C(=O)O; ξαMeS = CC(N)(CO)C(=O)O; Dap = NC[C@H](N)C(=O)O; Glycolyl = O=C(CO)*; Ms = CS(=O)(=O)*

Assays:
DEL ALCL = test: In vitro cytotoxicity, cell proliferation assay (CellTiter-Glo, 96 h); format: cell-based; conditions: auristatin free drug
Description: (§1) The cytotoxicity of free drugs and drug conjugates were measured by a cell proliferation assay employing the protocol described in Promega Corp. Technical Bulletin TB288; and Mendoza et al., 2002, Cancer Res. 62:5485-5488), the methods of which are specifically incorporated by reference herein. Briefly, an aliquot of 40 μl of cell culture containing about 400 cells in medium is deposited in each well of a 384-well, opaque-walled plate. A 10 μL aliquot of free drug or drug conjugate is added to the experimental wells and incubated for 96 h and are then equilibrated to room temperature for approximately 30 minutes whereupon a volume of CellTiter-Glo™ reagent equal to the volume of cell culture medium present in each well is added. The contents are mixed for 2 minutes on an orbital shaker to induce cell lysis and the plate is incubated at room temperature for 10 minutes to stabilize the luminescence signal for recordation.

L540cy HL = test: as above; format: cell-based; conditions: auristatin free drug
Description: as §1

Karpas299 NHL = test: as above; format: cell-based; conditions: Homo sapiens, KARPAS-299, auristatin free drug
Description: as §1

[1] = LogD, miniaturized 1-octanol/pH 7.4 buffer shake flask method, LC/MS/MS; format: physicochemical
Description: The LogD (distribution coefficient) of the compounds was measured using a miniaturized 1-octanol/pH 7.4 buffer shake flask method followed by LC/MS/MS analysis. Values were determined by measuring the compound partitioned in the organic and buffered layers.

Sprague Dawley rats = test: In vivo rat safety study of non-binding (h00) ADCs, hematology and clinical chemistry; conditions: ADC of the Drug-Linker
Description: In vivo rat safety studies were done in naive female Sprague Dawley rats (Envigo). Studies had 3 animals/group/timepoint and included a vehicle control group (1×PBS pH 7.4). Animals were administered a single dose of 15 or 80 mg/kg of an h00 ADC (DAR=4) via intravenous injection. Blood was drawn at days 5 and day 8. Blood was sampled under isoflurane anesthesia via the jugular vein for periodic hematology analysis on the Sysmex XT-2000iV. At necropsy, blood was collected from the caudal vena cava for hematology and clinical chemistry panels. Clinical chemistry was analyzed on a Beckman Coulter AU680.

SMILES | pIC50 (DEL ALCL) | pIC50 (L540cy HL) | pIC50 (Karpas299 NHL) | logD [1] | Tolerated at 80 mg/kg in rats (Sprague Dawley rats)
CC[C@H](C)[C@@H]([C@@H](CC(=O)N1CCC[C@H]1[C@H](OC)[C@@H](C)C(=O)N[C@H](CO)Cc1ccccc1)OC)N(C)C(=O)[C@@H](NC(=O)[C@H](CO)NC)C(C)C [Example 12] (H-[NMeS]V[Dil][Dolaproine][Phe(ol)]) | 8.96 | 8.32 | 9.52 | 1.2 | –
CC[C@H](C)[C@@H]([C@@H](CC(=O)N1CCC[C@H]1[C@H](OC)[C@@H](C)C(=O)N[C@H](CO)Cc1ccccc1)OC)N(C)C(=O)[C@@H](NC(=O)[C@@H](NC)[C@@H](C)O)C(C)C [Example 13] (H-[NMeT]V[Dil][Dolaproine][Phe(ol)]) | 8.92 | 8.30 | 8.66 | 1.4 | –
CC[C@H](C)[C@@H]([C@@H](CC(=O)N1CCC[C@H]1[C@H](OC)[C@@H](C)C(=O)N[C@H](CO)Cc1ccccc1)OC)N(C)C(=O)[C@@H](NC(=O)[C@@H](CO)NC)C(C)C [Example 14] (H-[dNMeS]V[Dil][Dolaproine][Phe(ol)]) | 8.46 | 8.00 | 8.13 | 1.1 | –
CC[C@H](C)[C@@H]([C@@H](CC(=O)N1CCC[C@H]1[C@H](OC)[C@@H](C)C(=O)N[C@H](C)[C@@H](O)c1ccccc1)OC)N(C)C(=O)[C@@H](NC(=O)[C@H](CO)NC)C(C)C [Example 17] (H-[NMeS]V[Dil][Dolaproine]-X1) | 8.60 | 7.79 | 8.12 | 1.1 | –
CC[C@H](C)[C@@H]([C@@H](CC(=O)N1CCC[C@H]1[C@H](OC)[C@@H](C)C(=O)NCCc1ccccc1)OC)N(C)C(=O)[C@@H](NC(=O)[C@H](CO)NC)C(C)C [Example 18] (H-[NMeS]V[Dil][Dolaproine]-NHPhenethyl) | 9.22 | 7.80 | 8.64 | 1.9 | –
CC[C@H](C)[C@@H]([C@@H](CC(=O)N1CCC[C@H]1[C@H](OC)[C@@H](C)C(=O)N[C@@H](Cc1ccccc1)c1nccs1)OC)N(C)C(=O)[C@@H](NC(=O)[C@H](CO)NC)C(C)C [Example 19] (H-[NMeS]V[Dil][Dolaproine]-Doe) | 9.40 | 8.60 | 9.30 | 2.4 | –
CC[C@H](C)[C@@H]([C@@H](CC(=O)N1CCC[C@H]1[C@H](OC)[C@@H](C)C(=O)N[C@@H](Cc1ccccc1)c1nccs1)OC)N(C)C(=O)[C@@H](NC(=O)[C@H](CO)NC)[C@@H](C)CC [Example 20] (H-[NMeS]I[Dil][Dolaproine]-Doe) | 9.52 | 8.33 | 9.00 | 1.9 | –
CC[C@H](C)[C@@H]([C@@H](CC(=O)N1CCC[C@H]1[C@H](OC)[C@@H](C)C(=O)N[C@H](C)[C@@H](O)c1ccccc1)OC)N(C)C(=O)[C@@H](NC(=O)[C@@H](N)C(C)(C)O)C(C)C [Example 28] (H-[Val(3-OH)]V[Dil][Dolaproine]-X1) | 8.11 | 7.55 | 8.03 | 2 | –
CC[C@H](C)[C@@H]([C@@H](CC(=O)N1CCC[C@H]1[C@H](OC)[C@@H](C)C(=O)N[C@H](CO)Cc1ccccc1)OC)N(C)C(=O)[C@@H](NC(=O)[C@@H](N)C(C)(C)O)C(C)C [Example 29] (H-[Val(3-OH)]V[Dil][Dolaproine][Phe(ol)]) | 7.90 | 7.24 | 7.86 | 2 | –
CC[C@H](C)[C@@H]([C@@H](CC(=O)N1CCC[C@H]1[C@H](OC)[C@@H](C)C(=O)N[C@H](CO)Cc1ccc(O)cc1)OC)N(C)C(=O)[C@@H](NC(=O)[C@@H](N)C(C)(C)O)C(C)C [Example 30] (H-[Val(3-OH)]V[Dil][Dolaproine]-Tyrosinol) | 6.40 | < 6.00 | 6.32 | 1.2 | –
CC[C@H](C)[C@@H]([C@@H](CC(=O)N1CCC[C@H]1[C@H](OC)[C@@H](C)C(=O)N[C@@H](Cc1ccccc1)c1nccs1)OC)N(C)C(=O)[C@@H](NC(=O)[C@@H](N)C(C)(C)O)C(C)C [Example 31] (H-[Val(3-OH)]V[Dil][Dolaproine]-Doe) | 8.68 | 8.33 | 8.77 | 3.4 | –
CC[C@H](C)[C@@H]([C@@H](CC(=O)N1CCC[C@H]1[C@H](OC)[C@@H](C)C(=O)N[C@H](C)[C@@H](O)c1ccccc1)OC)N(C)C(=O)[C@@H](NC(=O)C[C@@H](N)CO)C(C)C [Example 32] | 7.19 | 6.04 | 7.25 | 0.3 | –
CC[C@H](C)[C@@H]([C@@H](CC(=O)N1CCC[C@H]1[C@H](OC)[C@@H](C)C(=O)N[C@H](C)[C@@H](O)c1ccccc1)OC)N(C)C(=O)[C@@H](NC(=O)C(C)(N)CO)C(C)C (stereo partly drawn) [Example 33] (H-[ξαMeS]V[Dil][Dolaproine]-X1) | 8.74 | 8.19 | 8.77 | 3.2 | –
CC[C@H](C)[C@@H]([C@@H](CC(=O)N1CCC[C@H]1[C@H](OC)[C@@H](C)C(=O)N[C@H](CO)Cc1ccccc1)OC)N(C)C(=O)[C@@H](NC(=O)[C@H]1COC(=O)N1C)C(C)C [Example 45] (X3-V[Dil][Dolaproine][Phe(ol)]) | 8.07 | 6.57 | 7.39 | 1.5 | –
CC[C@H](C)[C@@H]([C@@H](CC(=O)N1CCC[C@H]1[C@H](OC)[C@@H](C)C(=O)N[C@H](CO)Cc1ccccc1)OC)N(C)C(=O)[C@@H](NC(=O)[C@@H](N)CN[S+](C)[O-])C(C)C (stereo partly drawn) [Example 48] (H-[X11]V[Dil][Dolaproine][Phe(ol)]) | 7.39 | < 6.00 | 6.96 | – | –
CC[C@H](C)[C@@H]([C@@H](CC(=O)N1CCC[C@H]1[C@H](OC)[C@@H](C)C(=O)N[C@H](CO)Cc1ccccc1)OC)N(C)C(=O)[C@@H](NC(=O)[C@@H]1C[C@@H](O)CN1)C(C)C [Example 49] (H-[Hyp]V[Dil][Dolaproine][Phe(ol)]) | 7.49 | 7.12 | 7.46 | – | –
CC[C@H](C)[C@@H]([C@@H](CC(=O)N1CCC[C@H]1[C@H](OC)[C@@H](C)C(=O)N[C@H](CO)Cc1ccccc1)OC)N(C)C(=O)[C@@H](NC(=O)[C@@H](N)CNS(C)(=O)=O)C(C)C [Example 50] (H-[Dap](Ms)V[Dil][Dolaproine][Phe(ol)]) | < 6.00 | < 6.00 | < 6.00 | – | –
CC[C@H](C)[C@@H]([C@@H](CC(=O)N1CCC[C@H]1[C@H](OC)[C@@H](C)C(=O)N[C@H](CO)Cc1ccccc1)OC)N(C)C(=O)[C@@H](NC(=O)[C@@H](N)CNC(=O)CO)C(C)C [Example 51] (H-[Dap](Glycolyl)V[Dil][Dolaproine][Phe(ol)]) | 7.03 | < 6.00 | 6.65 | – | –
CC[C@H](C)[C@@H]([C@@H](CC(=O)N1CCC[C@H]1[C@H](OC)[C@@H](C)C(=O)NC(CO)Cc1nccs1)OC)N(C)C(=O)[C@@H](NC(=O)[C@H](CO)N(C)C)C(C)C (stereo partly drawn) [Example 52] | 7.37 | 6.36 | 7.24 | – | –
CC[C@H](C)[C@@H]([C@@H](CC(=O)N1CCC[C@H]1[C@H](OC)[C@@H](C)C(=O)NC(CO)Cn1ccnn1)OC)N(C)C(=O)[C@@H](NC(=O)[C@H](CO)N(C)C)C(C)C (stereo partly drawn) [Example 53] | < 6.00 | < 6.00 | < 6.00 | – | –
CC[C@H](C)[C@@H]([C@@H](CC(=O)N1CCC[C@H]1[C@H](OC)[C@@H](C)C(=O)NC(CCO)Cc1ccccc1)OC)N(C)C(=O)[C@@H](NC(=O)[C@H](CO)N(C)C)C(C)C (stereo partly drawn) [Example 54] | 8.15 | 6.56 | 8.22 | – | –
CC[C@H](C)[C@@H]([C@@H](CC(=O)N1CCC[C@H]1[C@H](OC)[C@@H](C)C(=O)NC(Cc1ccccc1)c1cccs1)OC)N(C)C(=O)[C@@H](NC(=O)[C@H](CO)N(C)C)C(C)C (stereo partly drawn) [Example 55] | 9.10 | 7.80 | 9.00 | – | –
CC[C@H](C)[C@@H]([C@@H](CC(=O)N1CCC[C@H]1[C@H](OC)[C@@H](C)C(=O)NC(Cc1ccccc1)c1ncco1)OC)N(C)C(=O)[C@@H](NC(=O)[C@H](CO)N(C)C)C(C)C (stereo partly drawn) [Example 56] | 9.00 | 7.62 | 9.05 | – | –
CC[C@H](C)[C@@H]([C@@H](CC(=O)N1CCC[C@H]1[C@H](OC)[C@@H](C)C(=O)N[C@@H](Cc1ccccc1)[C@@H](O)CO)OC)N(C)C(=O)[C@@H](NC(=O)[C@H](CO)N(C)C)C(C)C [Example 57] | 8.40 | 7.31 | 8.52 | – | –
CC[C@H](C)[C@@H]([C@@H](CC(=O)N1CCC[C@H]1[C@H](OC)[C@@H](C)C(=O)N[C@H](CO)Cc1ccccc1)OC)N(C)C(=O)[C@@H](NC(=O)[C@H](CO)N(C)C(=O)OCc1ccc(NC(=O)[C@H](CCCNC(N)=O)NC(=O)[C@@H](NC(=O)CCCCCN2C(=O)C=CC2=O)C(C)C)cc1)C(C)C [Example 61] ({Hexanoyl(6-maleimido)}-V[Cit][PABC][NMeS]V[Dil][Dolaproine][Phe(ol)]) | – | – | – | – | Yes
